These results are taken from article PMC5791972 (PLoS ONE, 2018).

pIC50: −log10 of the molar value. Where “and” joins values, the source holds several entries; their conditions need not be identical. Identical values can stand only once. No end group written: not given here.

In assay [1] the target is T1, tyrosine hydroxylase (Rattus norvegicus, UniProt P04177).
T1 construct: rat striatum; from tissue; host or cells: rat striatum
Briefly: enzyme assay. Type of assay: biochemical.

Assay [2] concerns the target T2, GABA transaminase (Rattus norvegicus, UniProt P50554).
T2 construct: rat brain; from tissue; host or cells: rat brain
Put plainly: enzyme assay. It is filed as biochemical.

For assay [3], the target named is T3, A3 (h) (Homo sapiens, UniProt P0DMS8).
T3 construct: host or cells: HEK-293 cells
T3 sequence (P0DMS8 1-318): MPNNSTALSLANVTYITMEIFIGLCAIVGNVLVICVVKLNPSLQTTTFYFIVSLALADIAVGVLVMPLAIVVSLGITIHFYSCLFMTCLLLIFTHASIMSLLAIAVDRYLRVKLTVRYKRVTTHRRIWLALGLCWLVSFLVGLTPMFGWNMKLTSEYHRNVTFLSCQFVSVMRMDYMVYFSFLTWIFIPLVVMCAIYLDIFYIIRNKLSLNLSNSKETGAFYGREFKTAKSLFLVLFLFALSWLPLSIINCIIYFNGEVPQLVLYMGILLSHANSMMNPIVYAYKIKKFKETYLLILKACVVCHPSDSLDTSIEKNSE
It is filed as binding.

Assay [4] concerns the target T4, BLT1 (LTB4) (h) (Homo sapiens, UniProt Q15722).
T4 construct: host or cells: CHO cells
Type of assay: binding.

Assay [5] addresses T5, β1 (h) (Homo sapiens, UniProt P08588).
T5 construct: host or cells: HEK-293 cells
Type of assay: binding.

In assay [6] the target is T6, H2 (h) (Homo sapiens, UniProt P25021).
T6 construct: host or cells: CHO cells
Type of assay: binding.

In assay [7] the target is T7, α2C (h) (Homo sapiens, UniProt P18825).
T7 construct: host or cells: CHO cells
T7 sequence (P18825 1-462): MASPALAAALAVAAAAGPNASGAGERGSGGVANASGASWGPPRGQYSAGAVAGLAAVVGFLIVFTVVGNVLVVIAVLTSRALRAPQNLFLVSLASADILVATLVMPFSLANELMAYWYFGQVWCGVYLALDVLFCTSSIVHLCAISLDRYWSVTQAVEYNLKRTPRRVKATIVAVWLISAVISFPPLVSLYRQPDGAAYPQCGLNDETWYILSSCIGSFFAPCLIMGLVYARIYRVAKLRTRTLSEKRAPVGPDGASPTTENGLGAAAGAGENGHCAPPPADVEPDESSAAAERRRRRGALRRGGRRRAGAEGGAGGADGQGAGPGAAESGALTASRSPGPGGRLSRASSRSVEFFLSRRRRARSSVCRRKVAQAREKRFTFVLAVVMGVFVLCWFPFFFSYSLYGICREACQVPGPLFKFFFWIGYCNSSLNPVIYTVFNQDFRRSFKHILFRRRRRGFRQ
Type of assay: binding.

The target in assay [8] is T8, AR (h) (Homo sapiens, UniProt P10275, T878A).
T8 construct: AR (h) LNCaP cells [3H]methyltrienolone; host or cells: LNCaP cells (cytosol)
T8 sequence (P10275 1-920 T878A): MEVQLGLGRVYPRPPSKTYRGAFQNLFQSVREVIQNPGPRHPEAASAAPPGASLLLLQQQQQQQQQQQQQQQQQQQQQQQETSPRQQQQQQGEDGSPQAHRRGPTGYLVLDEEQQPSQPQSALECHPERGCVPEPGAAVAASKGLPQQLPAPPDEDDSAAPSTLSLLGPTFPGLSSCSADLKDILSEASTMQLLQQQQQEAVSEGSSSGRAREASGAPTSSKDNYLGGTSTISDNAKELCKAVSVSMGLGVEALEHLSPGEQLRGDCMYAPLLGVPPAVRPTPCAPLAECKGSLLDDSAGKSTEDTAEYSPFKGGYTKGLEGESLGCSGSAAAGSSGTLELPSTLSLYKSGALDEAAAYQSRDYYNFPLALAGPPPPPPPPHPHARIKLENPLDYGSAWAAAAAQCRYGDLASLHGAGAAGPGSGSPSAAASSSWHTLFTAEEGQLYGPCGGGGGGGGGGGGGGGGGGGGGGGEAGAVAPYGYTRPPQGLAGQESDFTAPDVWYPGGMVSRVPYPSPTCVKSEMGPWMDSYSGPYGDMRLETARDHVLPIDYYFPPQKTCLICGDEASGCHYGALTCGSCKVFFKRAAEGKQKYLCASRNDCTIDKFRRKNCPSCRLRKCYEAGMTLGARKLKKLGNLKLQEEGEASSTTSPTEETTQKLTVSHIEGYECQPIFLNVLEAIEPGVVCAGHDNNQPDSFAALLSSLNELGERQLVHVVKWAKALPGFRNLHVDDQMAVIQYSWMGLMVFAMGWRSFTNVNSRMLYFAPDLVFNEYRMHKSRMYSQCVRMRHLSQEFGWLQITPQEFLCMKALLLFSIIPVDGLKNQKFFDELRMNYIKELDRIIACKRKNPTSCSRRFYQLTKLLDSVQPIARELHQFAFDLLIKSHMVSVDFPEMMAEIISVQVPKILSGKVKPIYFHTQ
It is filed as binding.

The target in assay [9] is T9, α2A (h) (Homo sapiens, UniProt P08913).
T9 construct: host or cells: CHO cells
T9 sequence (P08913 1-465): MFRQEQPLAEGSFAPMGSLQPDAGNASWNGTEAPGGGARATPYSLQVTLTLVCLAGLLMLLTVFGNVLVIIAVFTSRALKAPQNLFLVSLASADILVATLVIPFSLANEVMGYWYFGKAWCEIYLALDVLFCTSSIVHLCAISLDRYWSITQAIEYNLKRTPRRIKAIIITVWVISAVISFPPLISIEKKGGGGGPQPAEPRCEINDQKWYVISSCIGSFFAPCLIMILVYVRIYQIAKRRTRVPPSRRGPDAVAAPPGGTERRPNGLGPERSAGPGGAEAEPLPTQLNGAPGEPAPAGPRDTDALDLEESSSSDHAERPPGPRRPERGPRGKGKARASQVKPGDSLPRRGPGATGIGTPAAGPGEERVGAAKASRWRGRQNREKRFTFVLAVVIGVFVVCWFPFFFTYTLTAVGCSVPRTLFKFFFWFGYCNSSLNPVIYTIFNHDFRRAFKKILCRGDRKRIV
It is filed as binding.

In assay [10] the target is T10, PDE6 (non-selective) (Bos taurus, UniProt P11541+P23439).
T10 construct: PDE6 bovine [3H]cGMP; tissue Cerep (contract assay); host or cells: bovine retina
T10 sequence (P11541 2-856 limits assumed): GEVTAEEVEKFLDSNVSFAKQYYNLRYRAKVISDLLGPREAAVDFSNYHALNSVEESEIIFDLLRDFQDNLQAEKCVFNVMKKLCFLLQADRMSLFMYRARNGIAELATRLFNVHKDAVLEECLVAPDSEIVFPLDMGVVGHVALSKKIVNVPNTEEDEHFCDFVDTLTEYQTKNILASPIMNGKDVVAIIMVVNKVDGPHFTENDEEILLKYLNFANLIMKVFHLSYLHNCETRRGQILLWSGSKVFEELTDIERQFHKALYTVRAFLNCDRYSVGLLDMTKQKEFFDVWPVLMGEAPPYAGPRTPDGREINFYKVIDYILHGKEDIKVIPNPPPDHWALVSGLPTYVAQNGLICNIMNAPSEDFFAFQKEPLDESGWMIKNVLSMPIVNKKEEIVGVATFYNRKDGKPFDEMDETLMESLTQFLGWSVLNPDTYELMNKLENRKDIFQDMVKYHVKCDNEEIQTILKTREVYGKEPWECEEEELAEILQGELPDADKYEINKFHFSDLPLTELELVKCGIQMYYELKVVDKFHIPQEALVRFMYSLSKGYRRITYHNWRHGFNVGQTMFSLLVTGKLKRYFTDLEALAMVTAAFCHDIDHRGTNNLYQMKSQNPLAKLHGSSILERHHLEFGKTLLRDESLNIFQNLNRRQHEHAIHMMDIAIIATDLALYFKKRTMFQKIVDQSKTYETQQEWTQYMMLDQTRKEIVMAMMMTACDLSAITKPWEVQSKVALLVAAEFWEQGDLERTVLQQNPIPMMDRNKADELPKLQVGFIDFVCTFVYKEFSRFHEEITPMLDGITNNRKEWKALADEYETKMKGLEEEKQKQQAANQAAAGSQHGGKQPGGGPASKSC
T10 sequence (P23439 2-850 limits assumed): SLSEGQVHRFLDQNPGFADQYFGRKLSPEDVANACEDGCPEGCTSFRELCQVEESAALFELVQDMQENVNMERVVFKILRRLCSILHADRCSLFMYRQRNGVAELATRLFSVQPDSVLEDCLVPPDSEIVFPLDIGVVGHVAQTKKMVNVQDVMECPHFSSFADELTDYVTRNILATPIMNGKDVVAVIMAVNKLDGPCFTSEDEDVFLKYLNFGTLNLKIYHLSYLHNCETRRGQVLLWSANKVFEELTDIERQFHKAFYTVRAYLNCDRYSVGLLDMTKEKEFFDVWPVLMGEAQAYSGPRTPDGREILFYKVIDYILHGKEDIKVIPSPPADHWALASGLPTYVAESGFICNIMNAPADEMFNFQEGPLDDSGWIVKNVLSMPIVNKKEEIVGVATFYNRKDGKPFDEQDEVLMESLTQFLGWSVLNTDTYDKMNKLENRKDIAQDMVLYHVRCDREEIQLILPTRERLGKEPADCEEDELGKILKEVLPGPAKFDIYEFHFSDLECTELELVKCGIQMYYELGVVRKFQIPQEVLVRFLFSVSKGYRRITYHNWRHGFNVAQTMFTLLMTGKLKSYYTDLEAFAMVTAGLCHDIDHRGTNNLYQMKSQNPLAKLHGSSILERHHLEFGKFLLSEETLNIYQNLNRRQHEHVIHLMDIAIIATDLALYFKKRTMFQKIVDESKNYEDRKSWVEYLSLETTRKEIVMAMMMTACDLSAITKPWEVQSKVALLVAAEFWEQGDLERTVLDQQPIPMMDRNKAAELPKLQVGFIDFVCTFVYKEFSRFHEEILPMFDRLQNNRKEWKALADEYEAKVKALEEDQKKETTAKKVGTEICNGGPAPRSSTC
Put plainly: enzyme assay. Type of assay: biochemical, bovine.

Assay [11] addresses CaMK2α (h) (Homo sapiens, UniProt Q9UQM7). Put plainly: enzyme assay. It is filed as biochemical.
For assay [12], the target named is T11, phosphatase 1B (h) (PTP1B) (Homo sapiens, UniProt P18031).
T11 construct: host or cells: E. coli
T11 sequence (P18031 1-435): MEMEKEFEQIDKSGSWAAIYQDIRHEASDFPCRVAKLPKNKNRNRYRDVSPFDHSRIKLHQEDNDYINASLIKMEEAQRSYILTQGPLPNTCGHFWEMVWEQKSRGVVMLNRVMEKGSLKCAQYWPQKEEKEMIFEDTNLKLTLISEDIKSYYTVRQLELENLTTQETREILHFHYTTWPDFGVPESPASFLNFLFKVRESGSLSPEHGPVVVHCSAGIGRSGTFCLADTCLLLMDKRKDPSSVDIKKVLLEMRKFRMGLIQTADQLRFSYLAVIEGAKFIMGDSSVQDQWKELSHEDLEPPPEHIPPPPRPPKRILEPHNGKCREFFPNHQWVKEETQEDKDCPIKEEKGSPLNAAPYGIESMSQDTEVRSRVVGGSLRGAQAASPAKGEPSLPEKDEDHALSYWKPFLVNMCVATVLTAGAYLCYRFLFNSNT
Put plainly: enzyme assay. Type of assay: biochemical.

T2 sequence (P50554 28-500): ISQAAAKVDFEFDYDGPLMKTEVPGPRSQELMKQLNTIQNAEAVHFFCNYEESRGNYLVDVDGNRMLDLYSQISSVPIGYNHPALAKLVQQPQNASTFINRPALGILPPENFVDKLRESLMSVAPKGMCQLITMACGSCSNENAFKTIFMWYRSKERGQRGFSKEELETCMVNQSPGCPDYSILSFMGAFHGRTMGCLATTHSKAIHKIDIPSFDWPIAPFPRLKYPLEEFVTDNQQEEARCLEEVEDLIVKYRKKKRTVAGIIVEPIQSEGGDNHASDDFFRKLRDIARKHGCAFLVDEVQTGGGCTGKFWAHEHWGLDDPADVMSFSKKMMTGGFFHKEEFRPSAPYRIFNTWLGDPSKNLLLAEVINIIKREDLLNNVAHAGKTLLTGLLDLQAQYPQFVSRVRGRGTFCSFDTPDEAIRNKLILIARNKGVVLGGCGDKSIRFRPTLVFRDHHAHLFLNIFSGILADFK
T1 sequence (P04177 whole entry): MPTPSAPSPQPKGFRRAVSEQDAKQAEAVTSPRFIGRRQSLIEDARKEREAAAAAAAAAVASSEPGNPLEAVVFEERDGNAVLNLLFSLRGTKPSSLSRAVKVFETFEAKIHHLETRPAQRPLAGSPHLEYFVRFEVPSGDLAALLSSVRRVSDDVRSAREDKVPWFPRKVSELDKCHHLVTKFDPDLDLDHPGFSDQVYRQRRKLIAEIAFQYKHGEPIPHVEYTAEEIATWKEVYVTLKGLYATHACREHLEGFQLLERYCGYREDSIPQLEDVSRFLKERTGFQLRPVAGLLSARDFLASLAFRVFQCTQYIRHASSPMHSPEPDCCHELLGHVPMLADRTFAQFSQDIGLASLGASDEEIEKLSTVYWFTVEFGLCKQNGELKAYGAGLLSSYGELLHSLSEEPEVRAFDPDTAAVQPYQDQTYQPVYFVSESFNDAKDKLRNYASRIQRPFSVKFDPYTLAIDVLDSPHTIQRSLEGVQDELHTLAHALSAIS
T6 sequence (P25021 whole entry): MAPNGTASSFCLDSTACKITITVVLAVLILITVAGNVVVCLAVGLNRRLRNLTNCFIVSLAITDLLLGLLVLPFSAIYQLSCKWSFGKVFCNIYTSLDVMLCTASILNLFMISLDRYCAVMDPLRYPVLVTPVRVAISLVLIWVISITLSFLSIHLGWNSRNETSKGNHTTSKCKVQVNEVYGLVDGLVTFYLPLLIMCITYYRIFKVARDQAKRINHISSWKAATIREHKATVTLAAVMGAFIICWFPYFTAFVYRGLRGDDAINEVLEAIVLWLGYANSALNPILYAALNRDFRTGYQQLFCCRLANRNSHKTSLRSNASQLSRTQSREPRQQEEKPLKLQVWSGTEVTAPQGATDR
T5 sequence (P08588 whole entry): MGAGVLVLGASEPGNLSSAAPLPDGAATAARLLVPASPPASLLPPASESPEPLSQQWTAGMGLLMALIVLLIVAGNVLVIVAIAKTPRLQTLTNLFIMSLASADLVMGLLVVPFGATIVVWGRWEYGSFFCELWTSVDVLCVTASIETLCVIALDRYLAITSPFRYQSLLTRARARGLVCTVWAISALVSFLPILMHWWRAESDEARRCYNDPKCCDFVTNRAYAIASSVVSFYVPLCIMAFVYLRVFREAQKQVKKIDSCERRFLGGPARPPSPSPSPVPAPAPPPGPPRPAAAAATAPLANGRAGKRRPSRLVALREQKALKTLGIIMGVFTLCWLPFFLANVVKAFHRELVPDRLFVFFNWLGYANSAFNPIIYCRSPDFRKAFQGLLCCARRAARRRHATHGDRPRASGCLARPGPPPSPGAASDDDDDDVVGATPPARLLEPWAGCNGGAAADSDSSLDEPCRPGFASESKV
T4 sequence (Q15722 whole entry): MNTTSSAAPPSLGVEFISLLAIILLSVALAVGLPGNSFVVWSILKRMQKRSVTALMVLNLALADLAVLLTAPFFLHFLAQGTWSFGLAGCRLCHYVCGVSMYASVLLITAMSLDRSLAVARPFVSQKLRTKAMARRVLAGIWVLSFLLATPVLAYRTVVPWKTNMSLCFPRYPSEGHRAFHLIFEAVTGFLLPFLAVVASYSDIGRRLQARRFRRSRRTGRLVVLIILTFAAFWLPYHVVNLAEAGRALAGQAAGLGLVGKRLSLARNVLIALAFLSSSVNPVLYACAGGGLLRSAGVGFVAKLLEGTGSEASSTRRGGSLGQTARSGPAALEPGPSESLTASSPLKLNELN

As for `N[C@@H](Cc1ccc(O)c(I)c1)C(=O)O` [3-iodo L-tyrosine, reference compound], in assay [1], the negative logarithm of the IC50 (pIC50) is 6.21 and the nH was 1.0.
Turning to `NOCC(=O)O` [AoAA, reference compound], in assay [2], the pIC50 is 6.89 and the nH is 1.7.
In turn, `CNC(=O)[C@H]1O[C@@H](n2cnc3c(NCc4cccc(I)c4)ncnc32)[C@H](O)[C@@H]1O` [IB-MECA, reference compound] yielded a nH in assay [3] of 0.8.
Consider `CCCCC/C=C\C[C@@H](O)/C=C/C=C/C=C\[C@@H](O)CCCC(=O)O` [LTB4, reference compound], for which the nH in assay [4] is listed as 0.8.
Turning to `CC(C)NCC(O)COc1ccc(CC(N)=O)cc1` (centres unmarked) [atenolol, reference compound], the nH in assay [5] was determined as 1.0.
Take `CN/C(=N/CCSCc1nc[nH]c1C)NC#N` [cimetidine, reference compound]: the nH in [6] turned out to be 0.9.
In assay [7], `CNC[C@H](O)c1ccc(O)c(O)c1` [epinephrine, reference compound] yielded a nH of 1.1.
With `C[C@@H]1CC2=CC(=O)CC[C@@H]2[C@H]2CC[C@@]3(C)[C@@H](CC[C@]3(C)O)[C@@H]21` [mibolerone, reference compound], the nH in assay [8] is 1.1 and 1.0.
The compound `COC(=O)[C@@H]1[C@H]2C[C@H]3c4[nH]c5ccccc5c4CCN3C[C@@H]2CC[C@@H]1O` [yohimbine, reference compound] displayed a nH in assay [9] of 1.1.
In [10], `CCCOc1ccccc1-c1nc2nn[nH]c2c(=O)[nH]1` [zaprinast, reference compound] had a pIC50 of 6.77 and a nH of 0.7.
As to KKALRRQEAVDAL [AIP, reference compound], in assay [11], the pIC50 was 7.09 and the nH is listed as 1.0.
On to ammonium molybdate [reference compound], for which, in assay [12], the negative-log IC50 (pIC50) is 6.27 and the nH is 2.9.
